The text below walks through data of the NIST ThermoML archive (doi:10.1016/j.fluid.2014.05.021).

Numbers after ± are expanded uncertainties.

For the data set the following is noted: 101.33 kPa, Liquid, Vibrating tube method.

As to `CCN(CC)c1c(N(CC)CC)[c+]1N(CC)CC.N#C[N-]C#N` [1,2,3-tris(diethylamino)-cyclopropenylium dicyanoamide], the mass density by setting is: (278.15 K) 1016.38 ± 1.9 kg/m3; (283.15 K) 1013.27 ± 1.9 kg/m3; (288.15 K) 1010.14 ± 1.9 kg/m3; (293.15 K) 1007 ± 1.9 kg/m3; (298.15 K) 1003.91 ± 1.9 kg/m3; (303.15 K) 1000.79 ± 1.9 kg/m3. Further, the mass density by setting is: (308.15 K) 997.7 ± 1.9 kg/m3; (313.15 K) 994.62 ± 1.9 kg/m3; (318.15 K) 991.55 ± 1.9 kg/m3; (323.15 K) 988.5 ± 1.9 kg/m3; (328.15 K) 985.46 ± 1.8 kg/m3; (333.15 K) 982.43 ± 1.8 kg/m3. Also, the mass density (338.15 K) is 979.41 ± 1.8 kg/m3, the mass density (343.15 K) is 976.41 ± 1.8 kg/m3, the mass density (348.15 K) is 973.4 ± 1.8 kg/m3 and the mass density (353.15 K) is 970.42 ± 1.8 kg/m3.
On to `CCC[N+](C)(C)CC.O=S(=O)([N-]S(=O)(=O)C(F)(F)F)C(F)(F)F`, for which the mass density reads like this: (278.15 K) 1420.02 ± 0.63 kg/m3; (283.15 K) 1415.26 ± 0.62 kg/m3; (288.15 K) 1410.6 ± 0.62 kg/m3; (293.15 K) 1405.96 ± 0.61 kg/m3; (298.15 K) 1401.26 ± 0.61 kg/m3; (303.15 K) 1396.46 ± 0.6 kg/m3. Further, the mass density runs as follows: (308.15 K) 1391.81 ± 0.6 kg/m3; (313.15 K) 1387.91 ± 0.59 kg/m3; (318.15 K) 1383.36 ± 0.59 kg/m3; (323.15 K) 1379.82 ± 0.58 kg/m3; (328.15 K) 1375.4 ± 0.6 kg/m3; (333.15 K) 1370.97 ± 0.58 kg/m3. Moreover, the mass density is, setting by setting: (338.15 K) 1366.49 ± 0.58 kg/m3; (343.15 K) 1361.67 ± 0.57 kg/m3; (348.15 K) 1357.66 ± 0.56 kg/m3; (353.15 K) 1353.3 ± 0.56 kg/m3.
